According to ChEMBL document CHEMBL1201862, “PubChem BioAssay data set” (2004):
Activity calls are given as the source filed them.

Experiments:
[1] = molecular target: T1, Adenosylmethionine-8-amino-7-oxononanoate aminotransferase (Mycobacterium tuberculosis, UniProt P9WQ81); assay: Mycobacterium tuberculosis BioA enzyme inhibitor Measured in Biochemical System Using Plate Reader - 2163-02_Inhibitor_Dose_CherryPick_Activity.; format: functional, Mycobacterium tuberculosis UT205
T1 sequence (P9WQ81 whole entry): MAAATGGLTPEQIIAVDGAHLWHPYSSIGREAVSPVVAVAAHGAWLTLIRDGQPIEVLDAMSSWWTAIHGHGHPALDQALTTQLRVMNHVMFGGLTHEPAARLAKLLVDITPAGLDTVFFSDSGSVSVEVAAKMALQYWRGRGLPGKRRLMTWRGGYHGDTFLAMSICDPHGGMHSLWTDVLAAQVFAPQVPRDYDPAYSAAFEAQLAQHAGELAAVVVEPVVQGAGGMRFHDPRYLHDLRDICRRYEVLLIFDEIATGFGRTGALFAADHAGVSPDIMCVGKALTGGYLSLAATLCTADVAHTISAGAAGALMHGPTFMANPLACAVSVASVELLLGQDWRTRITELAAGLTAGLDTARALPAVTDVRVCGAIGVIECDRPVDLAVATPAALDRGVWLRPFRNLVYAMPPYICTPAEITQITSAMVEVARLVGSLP

[2] = molecular target: T2, Carboxy-terminal domain RNA polymerase II polypeptide A small phosphatase 1 (Homo sapiens, UniProt Q9GZU7); assay: inhibitors of CTDSP1, concentration-response testing, biochemical assay, absorbance-based, actives from ultra-high-throughput screening (AID 540297); format: functional
T2 sequence (Q9GZU7 whole entry): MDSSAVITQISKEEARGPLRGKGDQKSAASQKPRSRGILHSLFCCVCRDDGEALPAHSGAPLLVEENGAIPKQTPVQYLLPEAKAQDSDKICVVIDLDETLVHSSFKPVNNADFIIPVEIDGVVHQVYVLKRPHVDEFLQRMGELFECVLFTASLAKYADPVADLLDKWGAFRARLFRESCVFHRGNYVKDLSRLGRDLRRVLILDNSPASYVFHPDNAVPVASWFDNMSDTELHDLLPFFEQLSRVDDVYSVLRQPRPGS

[3] = C. albicans growth with fluconazole, confirmation, fluorescence, retest (AID 2467); format: functional, cell-based
[4] = NIH-3T3 fibroblast cytotoxicity, dose response, cytotoxicity control, cell-based, fluorescence, Alamar Blue, secondary assay (AID 2327); format: functional;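 further: NIH-3T3 mouse fibroblasts cultured with fluconazole at 8 µg/mL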
[5] = molecular target: T3, Type-1 angiotensin II receptor (Homo sapiens, UniProt P30556); assay: AT1 receptor antagonists, dose response, selectivity assay for APJ receptor antagonist project, cell-based, uHTS hits (AID 463214); format: functional;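 further: antagonist potency against angiotensin II stimulated AT1 response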
T3 sequence (P30556 whole entry): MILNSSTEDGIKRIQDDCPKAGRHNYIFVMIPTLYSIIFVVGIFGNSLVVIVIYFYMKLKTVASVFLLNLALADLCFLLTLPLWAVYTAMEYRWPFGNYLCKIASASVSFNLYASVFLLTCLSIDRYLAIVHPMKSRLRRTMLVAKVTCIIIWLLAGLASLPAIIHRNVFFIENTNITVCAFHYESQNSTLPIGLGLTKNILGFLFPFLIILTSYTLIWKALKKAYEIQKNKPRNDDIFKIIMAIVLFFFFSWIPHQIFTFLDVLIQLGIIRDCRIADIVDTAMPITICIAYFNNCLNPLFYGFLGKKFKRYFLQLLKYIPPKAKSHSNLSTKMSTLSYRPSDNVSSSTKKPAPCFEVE

[6] = molecular target: Beta-galactosidase (Escherichia coli, UniProt Q8VNN2); assay: PubChem AID 485352; format: functional
Sequence of Beta-galactosidase (Q8VNN2 whole entry): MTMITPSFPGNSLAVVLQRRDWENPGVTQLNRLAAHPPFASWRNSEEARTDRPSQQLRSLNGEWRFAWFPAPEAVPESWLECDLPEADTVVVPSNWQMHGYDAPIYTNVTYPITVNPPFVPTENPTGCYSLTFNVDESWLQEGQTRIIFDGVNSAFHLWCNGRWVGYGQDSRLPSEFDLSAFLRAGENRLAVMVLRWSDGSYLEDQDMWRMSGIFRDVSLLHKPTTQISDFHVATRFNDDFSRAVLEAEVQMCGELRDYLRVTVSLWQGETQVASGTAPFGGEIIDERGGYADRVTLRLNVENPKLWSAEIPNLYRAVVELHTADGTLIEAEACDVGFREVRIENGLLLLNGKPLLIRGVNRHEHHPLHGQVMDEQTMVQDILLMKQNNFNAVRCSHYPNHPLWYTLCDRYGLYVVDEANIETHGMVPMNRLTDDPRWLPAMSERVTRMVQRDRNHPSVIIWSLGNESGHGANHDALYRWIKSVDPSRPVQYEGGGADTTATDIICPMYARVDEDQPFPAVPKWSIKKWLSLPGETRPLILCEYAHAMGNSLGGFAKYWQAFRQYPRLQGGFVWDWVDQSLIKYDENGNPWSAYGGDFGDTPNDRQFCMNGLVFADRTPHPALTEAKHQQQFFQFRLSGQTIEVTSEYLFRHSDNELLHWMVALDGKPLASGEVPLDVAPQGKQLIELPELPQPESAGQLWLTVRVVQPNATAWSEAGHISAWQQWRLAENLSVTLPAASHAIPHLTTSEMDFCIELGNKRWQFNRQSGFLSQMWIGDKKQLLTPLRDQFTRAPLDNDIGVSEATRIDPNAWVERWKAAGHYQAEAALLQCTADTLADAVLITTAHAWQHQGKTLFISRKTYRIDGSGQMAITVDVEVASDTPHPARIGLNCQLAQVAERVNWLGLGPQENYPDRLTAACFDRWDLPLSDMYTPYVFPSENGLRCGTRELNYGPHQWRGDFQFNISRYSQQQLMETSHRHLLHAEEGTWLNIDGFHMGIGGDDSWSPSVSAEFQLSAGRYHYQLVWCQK

[7] = Luminescence Cell-Based Dose Confirmation HTS to Identify Inhibitors of Platelet Dense Granule Release. [Related pubchem assays: 1663 (Primary HTS), 1678 (Summary of Project)]; format: functional
[8] = molecular target: Luciferin 4-monooxygenase (Photinus pyralis, UniProt P08659); assay: firefly luciferase enzyme inhibitors, dose response, biochemical, luminescence (AID 1891)
Sequence of Luciferin 4-monooxygenase (P08659 whole entry): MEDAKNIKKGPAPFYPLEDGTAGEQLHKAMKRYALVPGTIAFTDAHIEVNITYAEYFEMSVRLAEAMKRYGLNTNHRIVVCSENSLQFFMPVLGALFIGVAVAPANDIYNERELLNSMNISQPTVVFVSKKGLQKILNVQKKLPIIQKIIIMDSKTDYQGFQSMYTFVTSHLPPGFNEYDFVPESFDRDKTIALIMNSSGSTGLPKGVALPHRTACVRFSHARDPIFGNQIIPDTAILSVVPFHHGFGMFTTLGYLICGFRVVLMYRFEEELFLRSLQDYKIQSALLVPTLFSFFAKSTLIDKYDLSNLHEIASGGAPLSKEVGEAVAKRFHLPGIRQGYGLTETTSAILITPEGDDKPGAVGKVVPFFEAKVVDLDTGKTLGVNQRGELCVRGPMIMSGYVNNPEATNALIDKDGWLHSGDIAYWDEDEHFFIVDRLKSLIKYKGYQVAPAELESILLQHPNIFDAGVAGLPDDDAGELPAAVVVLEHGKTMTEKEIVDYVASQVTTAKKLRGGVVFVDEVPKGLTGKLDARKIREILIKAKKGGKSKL

[9] = cytotoxicity toward NIH3T3 fibroblasts, dose response, counter-screen, cell-based, ATP luminescence, mouse fibroblasts (AID 2010); format: functional;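 further: cells exposed to compound for about 90 hours before reading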
[10] = inhibitors of intracellular T. cruzi replication, confirmation, NIH3T3 host cells, beta-gal luminescence (AID 2044); format: functional, cell-based;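 further: intracellular parasites grown in NIH/3T3 mouse fibroblasts as host cells; luminescent beta-galactosidase reporter signal from transgenic T. cruzi replicating inside host cells; inhibitors lower the luminescence signal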
[11] = Luminescence Cell-Based Dose Retest to Confirm Inhibitors of Cancer Stem Cells. [Related pubchem assays (depositor defined):AID2717, AID2721]; format: functional; conditions: Homo sapiens
[12] = molecular target: T4, Long-chain-fatty-acid--AMP ligase FadD28 (Mycobacterium tuberculosis, UniProt P9WQ59); assay: Fluorescence polarization aasay to screen for inhibitors that compete for the binding of FadD28 to a bisubstrate Measured in Biochemical System Using Plate Reader - 2147-01_Inhibitor_Dose_CherryPick_Activity.; format: functional, Mycobacterium tuberculosis H37Rv
T4 sequence (P9WQ59 whole entry): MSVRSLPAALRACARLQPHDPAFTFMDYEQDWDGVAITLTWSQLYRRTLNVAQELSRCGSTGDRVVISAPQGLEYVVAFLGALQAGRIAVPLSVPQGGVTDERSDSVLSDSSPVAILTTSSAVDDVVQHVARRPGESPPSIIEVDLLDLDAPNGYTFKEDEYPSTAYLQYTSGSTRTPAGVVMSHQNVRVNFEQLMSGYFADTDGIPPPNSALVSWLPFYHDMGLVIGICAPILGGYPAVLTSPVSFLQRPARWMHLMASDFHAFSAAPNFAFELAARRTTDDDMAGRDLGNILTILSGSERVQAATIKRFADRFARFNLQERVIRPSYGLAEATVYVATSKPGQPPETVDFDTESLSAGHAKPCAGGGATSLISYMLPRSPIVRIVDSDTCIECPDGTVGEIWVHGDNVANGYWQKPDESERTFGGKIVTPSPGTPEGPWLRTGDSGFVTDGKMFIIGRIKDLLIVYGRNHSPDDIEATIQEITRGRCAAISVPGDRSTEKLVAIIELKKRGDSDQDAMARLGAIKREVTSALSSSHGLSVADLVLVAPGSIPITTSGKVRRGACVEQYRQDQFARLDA

[13] = tested on: BJ; assay: cytotoxicity toward BJ-TERT fibroblasts, dose response, cell-based, RAS-independent, luminescence (AID 1933); format: functional; conditions: Homo sapiens
[14] = tested on: BJ; assay: cytotoxicity toward BJ-TERT-LT-ST fibroblasts, dose response, cell-based, RAS-independent, luminescence (AID 1935); format: functional; conditions: Homo sapiens;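 further: BJ fibroblasts immortalized with TERT plus LT and ST oncogenes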
[15] = tested on: BJ; assay: cytotoxicity toward Ras-transformed BJeLR fibroblasts, dose response, cell-based, alamar blue fluorescence, cherrypicked samples (AID 2631); format: functional; conditions: Homo sapiens;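 further: confirmatory dose-response assay in RAS-dependent BJ fibroblasts engineered with TERT, LT and ST, with cytotoxicity read by fluorescence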
[16] = tested on: BJ; assay: cells; format: functional, cell-based; conditions: Homo sapiens
[17] = cytotoxicity toward DRD oncogenic fibroblasts, dose response, cell-based, non-viral oncogenic, luminescence (AID 1934); format: functional; conditions: Homo sapiens
[18] = intracellular Trypanosoma cruzi inhibitors in host cells – cell-based, plate reader, cherry-pick samples, set 3, dose response (AID 651818); format: functional;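 further: compounds incubated with infected cells for about four days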
[19] = tested on: P388; assay: cells; format: functional; conditions: Mus musculus
[20] = Luminescence Cell-Based Dose Response HTS to Identify Inhibitors of 5'UTR Stem-Loop Driven Prion Protein mRNA Translation in H4 Neuroglioblastoma Cells. [Related pubchem assays: 1827 (Project Summary), 1813 (Primary HTS)]; format: functional
[21] = tested on: P388/ADR; assay: cells; format: functional; conditions: Mus musculus
[22] = inhibitors of SNCA 5'UTR-driven reporter translation, confirmation, H4 neuroglioma cells, luminescence (AID 1988); format: functional, cell-based
[23] = inhibitors of firefly luciferase expression or activity, dose response, H4 neuroglioma cells, luminescence (AID 1990); format: functional, cell-based
[24] = tested on: SN12K1; assay: cells; format: functional; conditions: Homo sapiens

Cc1cc(C)n(-c2ccc(C(=O)Nc3ccc4c(c3)OCO4)cc2)n1
AC50 [1]: 4.31 µM (active)

Cc1c(Cc2ccccc2)c(=O)oc2c(C)c(OCC(=O)NC[C@H]3CC[C@H](C(=O)O)CC3)ccc12
IC50 [2]: 4.87 µM (active)

Cc1onc(C(=O)Nc2sc3c(c2C#N)CCCC3)c1[N+](=O)[O-]
EC50 [3]: 1.59 µM (active)
EC50 [4]: > 75 µM (inactive)

Cn1c(=O)c(C(=S)NC(=O)C2CC2)c(N)n(Cc2ccccc2)c1=O
IC50 [5]: > 40 µM (not active)
EC50 [6]: > 40 µM (inactive)

N=C1/C(=C/c2cccn2-c2ccc([N+](=O)[O-])cc2)C(=O)N=C2SC=CN12
EC50 [3]: 1.33 µM (active)
EC50 [4]: > 160 µM (inactive)

O=C(Nc1ncc2c(n1)CC(c1ccco1)CC2=O)c1ccco1 (stereo not given)
AC50 [1]: 6.29 µM (active)
EC50 [7]: > 112 µM (not active)
EC50 [8]: > 112 µM (not active)

O=C(NNC(=O)c1cc2ccccc2cc1O)NC1CCCCC1
EC50 [3]: > 38 µM (not active)
EC50 [4]: > 150 µM (inactive)

Cc1cc(C)c2sc(N(CCCN(C)C)C(=O)c3ccc(S(=O)(=O)N4CCCc5ccccc54)cc3)nc2c1
EC50 [9]: 12.2 µM (active)
IC50 [5]: > 40 µM (not active)
EC50 [10]: 0.452 µM (active)
AC50 [11]: 4.46 µM (active)
EC50 [6]: > 40 µM (inactive)

COc1ccccc1-n1c(C)c(C(=O)O)c2cc(OC)c3ccccc3c21
AC50 [12]: 60.9 µM (active)

O=C(COC(=O)c1cccc(S(=O)(=O)N2CCCCCC2)c1)Nc1ccccc1
AC50 [12]: > 100 µM (inactive)

COc1ccc(C(=O)Nc2ccc(Cn3ccnc3)cc2)cc1OC
AC50 [1]: 7.74 µM (active)

O=C(COC(=O)c1cnccn1)c1cccc([N+](=O)[O-])c1
IC50 [5]: 13.6 µM (active)
EC50 [6]: > 40 µM (inactive)

CCOC(=O)/C=C1\CN(C(C)c2ccccc2)S(=O)(=O)c2ccccc21 (stereo not given)
IC50 [2]: 12.3 µM (active)

Cc1ccc(/C=C(\CCC(=O)O)c2nc3ccccc3s2)cc1[N+](=O)[O-]
AC50 [1]: 0.153 µM (active)

CCc1c(C(=O)NCCc2ccc(OC)c(OC)c2)[nH]c(C)c1C(C)=O
AC50 [1]: 3.74 µM (active)

COc1cccc2sc(Nc3nc(C)c(C(C)=O)s3)nc12
EC50 [9]: 7.09 µM (active)
IC50 [5]: 23.3 µM (not active)
EC50 [10]: 1.82 µM (active)
EC50 [6]: > 40 µM (inactive)

CCCC(=O)Nc1ccc(C(=O)N/N=C/c2ccc([N+](=O)[O-])o2)cc1
EC50 [13]: 17.2 µM (active)
EC50 [14]: 0.534 µM (inconclusive)
EC50 [15]: 0.123 µM (active)
EC50 [16]: 0.38 µM (active)
EC50 [17]: 26.5 µM (active)

COc1ccc(S(=O)(=O)Nc2ccc3c(c2)CC(=O)N([C@@H](C)CO)C[C@H](C)[C@H](CN(C)Cc2ccc(C(=O)Nc4ccccc4N)cc2)O3)cc1
AC50 [18]: 3.23 µM (active)

C[C@@H]1CCCCO[C@@H](CN(C)Cc2ccc(Cl)c(Cl)c2)[C@@H](C)CN([C@H](C)CO)C(=O)c2cc(NC(=O)NC3CCCCC3)ccc2O1
AC50 [18]: 5.48 µM (active)

COc1ccc(S(=O)(=O)N(C)C[C@H]2Oc3ccc(NS(=O)(=O)c4ccc(Cl)cc4)cc3CC(=O)N([C@H](C)CO)C[C@H]2C)cc1
AC50 [18]: 4.94 µM (active)

C[C@@H]1CN([C@@H](C)CO)C(=O)Cc2cc(NC(=O)Cc3ccccc3)ccc2O[C@@H]1CN(C)Cc1ccc(Oc2ccccc2)cc1
AC50 [18]: 2.61 µM (active)

C[C@@H]1CCCCO[C@H](CN(C)C(=O)Nc2ccc(C(F)(F)F)cc2)[C@@H](C)CN([C@H](C)CO)C(=O)c2cc(NC(=O)C3CCCCC3)ccc2O1
AC50 [18]: 1.12 µM (active)

C[C@H]1CN([C@@H](C)CO)C(=O)Cc2cc(NC(=O)NC3CCCCC3)ccc2O[C@@H]1CN(C)Cc1ccc(Oc2ccccc2)cc1
AC50 [18]: 6.74 µM (active)

COc1ccc(S(=O)(=O)Nc2ccc3c(c2)CC(=O)N([C@H](C)CO)C[C@@H](C)[C@@H](CN(C)Cc2ccc(C(=O)Nc4ccccc4N)cc2)O3)cc1
AC50 [18]: 2.9 µM (active)

Cc1ccc(OCC(=O)N/N=C\c2c(C)n(C)c3ccccc23)c([N+](=O)[O-])c1
AC50 [12]: 68 µM (active)

COC(=O)C[C@](O)(CCCC(C)(C)O)C(=O)O[C@@H]1C(OC)=C[C@]23CCCN2CCc2cc4c(cc2[C@H]13)OCO4 [OMACETAXINE MEPESUCCINATE]
GI50 [19]: 0.00388 µM (active)
EC50 [20]: < 0.1 µM (active)
GI50 [21]: 0.247 µM (active)
EC50 [15]: 0.00488 µM (active)
EC50 [22]: < 0.1 µM (active)
EC50 [23]: < 0.1 µM (active)
GI50 [24]: 0.0115 µM (active)
